Assay results from ChEMBL document CHEMBL1124449, “Synthesis and evaluation of the pharmacological activity of rigid analogues of sympathomimetic catecholamines derived from bicyclo[2.2.1]heptane” (J Med Chem, 1989).
The source made the active and inactive calls.

Legend:
[1] = Stimulation or blockade of Alpha adrenergic receptor on rat vas deferens up to a dose of 10e-4 M; format: tissue-based
[2] = molecular target: Beta-1 adrenergic receptor (Cavia porcellus) (UniProt B0FL73); assay: Stimulation or blockade of Beta-1 adrenergic receptor on guinea pig atria up to a dose of 10e-4 M
[3] = molecular target: Beta-2 adrenergic receptor (Canis lupus familiaris) (UniProt P54833); assay: Stimulation or blockade of Beta-2 adrenergic receptor on guinea pig trachea up to a dose of 10e-4 M; settings: Cavia porcellus; target entry is the homologue from another species

Measured: Activity

Beta-1 adrenergic receptor (Cavia porcellus), sequence (B0FL73 1-467): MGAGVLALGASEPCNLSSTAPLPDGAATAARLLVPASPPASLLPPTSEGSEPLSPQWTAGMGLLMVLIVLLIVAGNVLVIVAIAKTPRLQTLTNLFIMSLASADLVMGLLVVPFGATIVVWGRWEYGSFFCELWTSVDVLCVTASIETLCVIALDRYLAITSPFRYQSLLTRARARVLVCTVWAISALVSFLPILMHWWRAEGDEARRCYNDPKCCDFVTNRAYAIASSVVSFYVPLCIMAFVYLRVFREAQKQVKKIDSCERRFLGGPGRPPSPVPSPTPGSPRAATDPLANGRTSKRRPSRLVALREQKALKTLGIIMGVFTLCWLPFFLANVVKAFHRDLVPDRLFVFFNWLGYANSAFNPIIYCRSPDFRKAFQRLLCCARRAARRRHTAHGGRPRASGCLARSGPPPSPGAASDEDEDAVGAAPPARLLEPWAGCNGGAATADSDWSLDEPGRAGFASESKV
Beta-2 adrenergic receptor (Canis lupus familiaris), sequence (P54833 whole entry, looked up): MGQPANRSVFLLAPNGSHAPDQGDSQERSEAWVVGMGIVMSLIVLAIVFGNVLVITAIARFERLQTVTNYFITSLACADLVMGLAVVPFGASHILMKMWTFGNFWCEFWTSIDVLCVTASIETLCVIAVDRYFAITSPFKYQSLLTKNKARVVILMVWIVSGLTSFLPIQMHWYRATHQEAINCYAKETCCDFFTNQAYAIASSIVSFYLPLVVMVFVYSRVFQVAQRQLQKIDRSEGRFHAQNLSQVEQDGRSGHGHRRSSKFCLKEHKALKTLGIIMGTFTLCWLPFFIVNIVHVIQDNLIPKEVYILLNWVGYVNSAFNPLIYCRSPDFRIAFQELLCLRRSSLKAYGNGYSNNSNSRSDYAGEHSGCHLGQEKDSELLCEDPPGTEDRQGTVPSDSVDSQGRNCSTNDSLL

NC1C2CCC(C2)C1(O)c1ccc(O)c(O)c1 (stereo unspecified)
inactive: all assays above

CC(C)NC1C2CCC(C2)C1(O)c1ccc(O)c(O)c1 (stereo unspecified)
inactive: all assays above
